Common to all, as to format: biochemical
Assay [1] concerns the target T1, human TK1 (Homo sapiens, UniProt P06870).
T1 construct: purchased R&D Systems
Briefly: Inhibition of TK1 (Ki). As to conditions: activated human TK1, substrate H-Pro-Phe-Arg-AMC, 24° C. In a few lines:
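Trypsin-activated human TK1 (31.25 nM) incubated at 24° C with 0.1 mM H-Pro-Phe-Arg-AMC and compound in Tris pH 7.8, 150 mM NaCl, 0.1% BSA, 0.05% Tween20, 1% DMSO. AMC fluorescence (ex 350/em 450 nm) read kinetically over 16 min; IC50 from four-parameter fit, converted to Ki using substrate KM.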

The target in assay [2] is T2, PKK in kaolin activated human platelet poor plasma (Homo sapiens, UniProt P03952).
T2 construct: Platelet poor plasma (PPP) obtained from human wholeblood; from tissue
Briefly: Inhibition of PKK in kaolin activated human PPP.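 Also: readout is the rate of fluorogenic substrate cleavage in rfu per min.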 The note with it: 25-750 μg/mL kaolin, global fit, text b200 calls the values IC90. As for the experimental part:
Platelet poor plasma (PPP) obtained from human wholeblood, anticoagulated with Na-Citrate, is incubated with various concentrations of the test compound together with either 25, 75, 250, or 750 μg/mL kaolin in assay buffer for 20 min at 37° C. such that for each kaolin dose used a concentration response is obtained for the test compound.

Assay [3] has as its target T3, Human PKK (Homo sapiens, UniProt P03952).
T3 construct: purchased Enzyme Research Laboratories
Briefly: Inhibition of PKK using an endpoint assay (human PKK). As to conditions: fluorogenic substrate H-Pro-Phe-Arg-AMC, 1 h room temperature, method names human or rat PKK, table does not say which. A digest of the protocol: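 Human PKK inhibition measured in 100 mM Tris, 150 mM NaCl, pH 7.8, 0.1% BSA, 0.05% Tween20, 1% DMSO. Endpoint format: reaction stopped with PPACK II at 1 μM final, fluorescence read at 355 nm excitation/460 nm emission.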

Assay [4] has as its target T3, Human PKK. Briefly: Inhibition of PKK (Ki). As to conditions: substrate KM, enzyme PKK. As for the experimental part:
The ability of compounds of formula (I) to inhibit plasma kallikrein (PKK), Factor XIIa (FXIIa), Factor XIa (FXIa), Factor Xa (FXa), Factor IIa (alpha-thrombin; FIIa), plasmin, trypsin, tissue kallikrein 1 (TK1), Factor VIIa (FVIIa), or FVIIa complexed with Tissue Factor, phospholipids and CaCl2 (FVIIa/TF/PL/CaCl2) is determined using the following biochemical assays in assay buffer (100 mM Tris, 150 mM NaCL, adjusted to a pH of 7.8 with HCl, and containing 0.1% (w/v) BSA and 0.05% (v/v) Tween20) in the presence of 1% (v/v) DMSO:
Human PKK (1.78 nM or 0.025 U/mL; Enzyme Research Laboratories) is incubated at 24° C. with 0.25 mM fluorogenic substrate H-Pro-Phe-Arg-AMC (11295 from Bachem) and various concentrations of the test compound in assay buffer. Measurements are performed in a kinetic interval every 2nd minute for 16 min using a Spectramax M5 (Molecular Devices) with the following settings of the wavelength excitation of 350 nm and wavelength emission of 450 nm.
The pIC50 values are then fitted using a four-parametric fitting procedure using GraphPad Prism (version 6; GraphPad Software, Inc.). Respective Ki values are obtained by correction of the IC50 values for the respective KM value of the used substrate (see Table A for the obtained KM values of the used substrates) using the following formula:
[formula] Where the IC50 is in molar and the KM value in mM.

Peptide text beside a SMILES is read from it. * marks the point of attachment. AMC = Cc1cc(=O)oc2cc(N*)ccc12

T1 sequence (P06870 25-262): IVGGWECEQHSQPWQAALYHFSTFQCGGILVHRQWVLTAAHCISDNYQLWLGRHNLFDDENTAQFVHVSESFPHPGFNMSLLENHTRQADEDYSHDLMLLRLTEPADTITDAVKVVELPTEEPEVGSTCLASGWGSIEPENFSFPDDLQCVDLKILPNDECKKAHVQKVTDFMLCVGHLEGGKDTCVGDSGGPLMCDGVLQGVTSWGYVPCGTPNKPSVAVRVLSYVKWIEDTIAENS
T3 sequence (P03952 20-390 limits assumed): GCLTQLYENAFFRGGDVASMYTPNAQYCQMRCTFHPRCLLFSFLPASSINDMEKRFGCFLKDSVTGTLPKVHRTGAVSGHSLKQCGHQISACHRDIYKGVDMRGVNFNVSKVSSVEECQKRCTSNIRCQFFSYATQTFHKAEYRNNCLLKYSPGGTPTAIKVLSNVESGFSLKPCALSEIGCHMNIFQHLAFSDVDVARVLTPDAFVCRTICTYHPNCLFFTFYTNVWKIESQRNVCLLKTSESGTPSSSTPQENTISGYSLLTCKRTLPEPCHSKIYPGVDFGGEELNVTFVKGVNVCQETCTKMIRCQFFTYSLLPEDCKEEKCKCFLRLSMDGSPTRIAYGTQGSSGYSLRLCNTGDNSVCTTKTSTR
T3 sequence (P03952 391-638 limits assumed): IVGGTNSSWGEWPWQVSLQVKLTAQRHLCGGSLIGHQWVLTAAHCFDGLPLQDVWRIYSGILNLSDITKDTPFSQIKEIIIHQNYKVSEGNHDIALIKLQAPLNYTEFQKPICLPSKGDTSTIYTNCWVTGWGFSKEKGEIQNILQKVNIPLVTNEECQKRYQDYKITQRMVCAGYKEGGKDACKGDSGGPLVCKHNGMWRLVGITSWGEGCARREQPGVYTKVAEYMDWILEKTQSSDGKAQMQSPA
T2 sequence (P03952 391-638 limits assumed): as above
T2 sequence (P03952 20-390 limits assumed): as the sequence (P03952 20-390 limits assumed) above

With `Cc1nc(N2CC3CC3C2)ncc1Cn1cc(C(=O)N[C@@H]2CCc3c2ncn3C)cn1` (stereo partly drawn) [Example 177, 1-[(2-{3-Azabicyclo[3.1.0]hexan-3-yl}-4-methylpyrimidin-5-yl)methyl]-N-[(4R)-1-methyl-1H,4H,5H,6H-cyclopenta[d]imidazol-4-yl]-1H-pyrazole-4-carboxamide], in assay [1], the Ki (commonly a dissociation constant, usually derived from enzyme kinetics or from competition with a known ligand) is above 10000 nM. Besides, the half-inhibitory concentration (IC50) (commonly the midpoint of a concentration-inhibition curve) was found to be 1180 nM in assay [2] and 5.5 nM in assay [3].
For `Cc1nc(N2CC3C(C2)C3(F)F)ncc1Cn1cc(C(=O)N[C@@H]2CCc3c2ncn3C)nn1` (stereo partly drawn) [Example 178, 1-[(2-{6,6-Difluoro-3-azabicyclo[3.1.0]hexan-3-yl}-4-methylpyrimidin-5-yl)methyl]-N-[(4R)-1-methyl-1H,4H,5H,6H-cyclopenta[d]imidazol-4-yl]-1H-1,2,3-triazole-4-carboxamide], in that order: above 10000 nM, 844 nM and 5 nM.
Molecule `Cc1nc(N2CC3CC3C2)ccc1Cc1ccc(C(=O)N[C@@H]2CCc3c2ncn3C)o1` (stereo partly drawn) [Example 181, 5-[(6-{3-Azabicyclo[3.1.0]hexan-3-yl}-2-methylpyridin-3-yl)methyl]-N-[(4R)-1-methyl-1H,4H,5H,6H-cyclopenta[d]imidazol-4-yl]furan-2-carboxamide] came in with a Ki in assay [1] above 10000 nM. The IC50 in assay [2] was found to be 22300 nM; in assay [3], 10.9 nM.
The corresponding values for `Cn1cnc2c1CC[C@H]2NC(=O)c1cnn(Cc2ccc(N3CC4CC4C3)c(C#N)c2)c1` (stereo partly drawn) [Example 190, 1-[(4-{3-Azabicyclo[3.1.0]hexan-3-yl}-3-cyanophenyl)methyl]-N-[(4R)-1-methyl-1H,4H,5H,6H-cyclopenta[d]imidazol-4-yl]-1H-pyrazole-4-carboxamide] are above 10000 nM, 1080 nM and 1.5 nM.
For `Cc1c(Cn2cc(C(=O)N[C@@H]3CCc4c3ncn4C)cn2)ccc(N2CC3CC3C2)c1C#N` (stereo partly drawn) [Example 193, 1-[(4-{3-azabicyclo[3.1.0]hexan-3-yl}-3-cyano-2-methylphenyl)methyl]-N-[(4R)-1-methyl-1H,4H,5H,6H-cyclopenta[d]imidazol-4-yl]-1H-pyrazole-4-carboxamide], in that order: above 10000 nM, 253 nM and 0.4 nM.
The corresponding values for `Cn1cnc2c1CC[C@H]2NC(=O)c1cn(Cc2ccc(N3CC4CC4C3)c(C#N)c2)cn1` (stereo partly drawn) [Example 196, 1-[(4-{3-azabicyclo[3.1.0]hexan-3-yl}-3-cyanophenyl)methyl]-N-[(4R)-1-methyl-1H,4H,5H,6H-cyclopenta[d]imidazol-4-yl]-1H-imidazole-4-carboxamide] are above 10000 nM, 350 nM and 1.5 nM.
As for `Cn1cnc2c1CC[C@H]2NC(=O)c1cnn(Cc2ccc(N3CC4CC4C3)c(C#N)c2F)c1` (stereo partly drawn) [Example 198, 1-[(4-{3-azabicyclo[3.1.0]hexan-3-yl}-3-cyano-2-fluorophenyl)methyl]-N-[(4R)-1-methyl-1H,4H,5H,6H-cyclopenta[d]imidazol-4-yl]-1H-pyrazole-4-carboxamide], the Ki in assay [1] is above 10000 nM. Moreover, the figures for the IC50 in assay [2] and in assay [3] were 398 nM and 0.8 nM, respectively.
The corresponding values for `Cc1nc(N2CC3CC3C2)ccc1Cn1cc(C(=O)N[C@@H]2CCc3c2ncn3C)c(CO)n1` (stereo partly drawn) [Example 217, 1-[(6-{3-Azabicyclo[3.1.0]hexan-3-yl}-2-methylpyridin-3-yl)methyl]-3-(hydroxymethyl)-N-[(4R)-1-methyl-1H,4H,5H,6H-cyclopenta[d]imidazol-4-yl]-1H-pyrazole-4-carboxamide] are above 10000 nM, 624 nM and 0.9 nM.
The molecule `Cc1nc(N2CC3C(C2)C3(F)F)ncc1Cn1cc(C(=O)N[C@@H]2CCc3c2ncn3C)cn1` (stereo partly drawn) [Example 218, 1-[(2-{6,6-Difluoro-3-azabicyclo[3.1.0]hexan-3-yl}-4-methylpyrimidin-5-yl)methyl]-N-[(4R)-1-methyl-1H,4H,5H,6H-cyclopenta[d]imidazol-4-yl]-1H-pyrazole-4-carboxamide] returned a Ki in assay [1] above 10000 nM. For the same molecule, the half-maximal inhibitory concentration (IC50) in assay [2] was 646 nM; in assay [3], 3.5 nM.
With `Cc1cc(=O)oc2cc(NC(=O)[C@H](CCCNC(=N)N)NC(=O)[C@H](Cc3ccccc3)NC(=O)[C@@H]3CCCN3)ccc12` [Example I1295, H-Pro-Phe-Arg-AMC] (H-Pro-Phe-Arg-{AMC}), the Km (in general, the substrate concentration at which the rate is half of its maximum) in assay [4] was found to be 160 µM.

(Values after patent publication US12479827B2, “Heteroaromatic carboxamide derivatives as plasma kallikrein inhibitors” (Boehringer Ingelheim International GmbH, priority 2020, dated 2025).)
